Results: patent publication US20060069132A1, “Azolecarboxamide herbicides” (priority 2004, published 2006)
Like-named read-outs stand apart in the source and are kept apart here.

Legend:
redroot pigweed = assay: Test A pre-/postemergence herbicide test; type: in vivo, Amaranthus retroflexus; details: Amaranthus retroflexus, 240 h; for pest or weed control at 500 g/ha: 500 g ai/ha; for pest or weed control at 2000 g/ha: 2000 g ai/ha
Summary of the method: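 Seeds sown in sandy loam received a preemergence directed soil spray of compound in non-phytotoxic solvent with surfactant; postemergence plants (2–10 cm, one- to two-leaf stage) were sprayed to runoff at the same time. After ~10 days in greenhouse, injury was rated visually versus untreated controls (0 = no effect, 100 = complete control).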

pigweed = assay: Test C pre-/postemergence herbicide test; type: in vivo, Amaranthus retroflexus; details: Amaranthus retroflexus, pre-emergence, read-out: Plant response rating, Pigweed; for pest or weed control at 62 g/ha: 62 g ai/ha, preemergence, scale 0 to 100; for pest or weed control at 125 g/ha: 125 g ai/ha, scale 0 (no effect) to 100 (complete control); for pest or weed control at 125 g/ha / pest or weed control at 500 g/ha: visual, 12 to 14 days; for pest or weed control at 250 g/ha: 250 g ai/ha, scale 0-100; for pest or weed control at 500 g/ha: 500 g ai/ha, scale 0 to 100 (0 no effect, 100 complete control)
Summary of the method: (§1)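 Seeds were planted and sprayed preemergence with test chemicals in a non-phytotoxic solvent mixture containing surfactant; postemergence treatments went onto plants 2 to 18 cm tall (1- to 4-leaf stage). After 12 to 14 days in a greenhouse, injury was rated visually against untreated controls on a 0–100 scale.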

morningglory = assay: Test C pre-/postemergence herbicide test; type: in vivo, Ipomoea coccinea; details: Ipomoea, pre-emergence, read-out: Plant response rating, Morningglory; for pest or weed control at 62 g/ha: 62 g ai/ha, preemergence, scale 0 to 100; for pest or weed control at 125 g/ha: 125 g ai/ha, scale 0 (no effect) to 100 (complete control); for pest or weed control at 125 g/ha / pest or weed control at 500 g/ha: visual, 12 to 14 days; for pest or weed control at 250 g/ha: 250 g ai/ha, scale 0-100; for pest or weed control at 500 g/ha: 500 g ai/ha, scale 0 to 100 (0 no effect, 100 complete control)
Summary of the method: as §1

bermudagrass = assay: Test C pre-/postemergence herbicide test; type: in vivo, Cynodon dactylon; details: Cynodon dactylon, pre-emergence, 312 h; for pest or weed control at 62 g/ha: 62 g ai/ha, preemergence; for pest or weed control at 62 g/ha / pest or weed control at 500 g/ha: scale 0 to 100, 0 no effect, 100 complete control; for pest or weed control at 62 g/ha / pest or weed control at 125 g/ha / pest or weed control at 250 g/ha: read-out: Plant response rating, Bermudagrass; for pest or weed control at 125 g/ha: 125 g ai/ha, scale 0 (no effect) to 100 (complete control), visual, 12 to 14 days; for pest or weed control at 250 g/ha: 250 g ai/ha, scale 0-100; for pest or weed control at 500 g/ha: Preemergence, 500 g ai/ha, read-out: Bermudagrass plant response rating
Summary of the method: as §1

barnyardgrass = assay: Test B pre-/postemergence herbicide test; type: in vivo, Echinochloa crus-galli; details: Echinochloa crus-galli; for pest or weed control at 125 g/ha: 125 g ai/ha; for pest or weed control at 500 g/ha: 500 g ai/ha
Summary of the method: (§2)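 Formulation: non-phytotoxic solvent mix with surfactant. Timing: preemergence on seed and postemergence on 2–18 cm plants, applied concurrently. Readout after 13–15 d greenhouse: visual 0–100 control rating against controls.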

cocklebur = assay: Test B pre-/postemergence herbicide test; type: in vivo, Xanthium strumarium; details: Xanthium strumarium; for pest or weed control at 125 g/ha: 125 g ai/ha; for pest or weed control at 500 g/ha: 500 g ai/ha
Summary of the method: as §2

Surinam grass = assay: Test C pre-/postemergence herbicide test; type: in vivo, Urochloa decumbens; details: Urochloa decumbens, pre-emergence, 312 h, read-out: Plant response rating, Surinam Grass; for pest or weed control at 62 g/ha: 62 g ai/ha, preemergence, scale 0 to 100; for pest or weed control at 250 g/ha: 250 g ai/ha, scale 0-100; for pest or weed control at 500 g/ha: 500 g ai/ha, scale 0 to 100 (0 no effect, 100 complete control), visual, 12 to 14 days
Summary of the method: as §1

[1] = post-emergence, Postemergence, 0 to 100 scale, 0 no effect, 100 complete control, read-out: Pigweed plant response rating
[2] = post-emergence, Postemergence, 0 to 100 scale, 0 no effect, 100 complete control, read-out: Plant response rating, Pigweed
[3] = pre-emergence, Preemergence, visual rating, 0 to 100 scale (0 no effect, 100 complete control), read-out: Pigweed plant response rating
[4] = pre-emergence, preemergence, visual injury, 0 to 100 scale (0 no effect, 100 complete control), read-out: Pigweed plant response rating
[5] = post-emergence, postemergence, visual rating, scale 0 (no effect) to 100 (complete control), read-out: Barnyardgrass plant response rating
[6] = pre-emergence, 0 = no effect, 100 = complete control, read-out: Barnyardgrass plant response rating (0 to 100 scale)
[7] = pre-emergence, visual rating, 0 = no effect, 100 = complete control, read-out: Plant response rating, Barnyardgrass
[8] = post-emergence, postemergence, visual rating, scale 0 (no effect) to 100 (complete control), read-out: Cocklebur plant response rating
[9] = pre-emergence, 0 = no effect, 100 = complete control, read-out: Cocklebur plant response rating (0 to 100 scale)
[10] = pre-emergence, visual rating, 0 = no effect, 100 = complete control, read-out: Plant response rating, Cocklebur

SMILES	pest or weed control at 500 g/ha (redroot pigweed; [1]) [%]	pest or weed control at 2000 g/ha (redroot pigweed; [2]) [%]	pest or weed control at 2000 g/ha (redroot pigweed; [3]) [%]	pest or weed control at 500 g/ha (redroot pigweed; [4]) [%]	pest or weed control at 62 g/ha (pigweed) [%]	pest or weed control at 125 g/ha (pigweed) [%]	pest or weed control at 250 g/ha (pigweed) [%]	pest or weed control at 500 g/ha (pigweed) [%]	pest or weed control at 62 g/ha (morningglory) [%]	pest or weed control at 125 g/ha (morningglory) [%]	pest or weed control at 250 g/ha (morningglory) [%]	pest or weed control at 500 g/ha (morningglory) [%]	pest or weed control at 62 g/ha (bermudagrass) [%]	pest or weed control at 125 g/ha (bermudagrass) [%]	pest or weed control at 250 g/ha (bermudagrass) [%]	pest or weed control at 500 g/ha (bermudagrass) [%]	pest or weed control at 125 g/ha (barnyardgrass; [5]) [%]	pest or weed control at 500 g/ha (barnyardgrass; [5]) [%]	pest or weed control at 125 g/ha (barnyardgrass; [6]) [%]	pest or weed control at 500 g/ha (barnyardgrass; [7]) [%]	also measured
CCc1nn(C(C)(C)C)cc1C(=O)Nc1cc(C(=O)N(C)C)ccc1F [Compound 222, N-[5-[(dimethylamino)carbonyl]-2-fluorophenyl]-1-(1,1-dimethylethyl)-3-ethyl-1H-pyrazole-4-carboxamide]	75	100	90	90	100	100	100	100	0	20	30	100	85	100	100	100	10	20	90	100	pest or weed control at 125 g/ha (cocklebur; [8]): 20%; pest or weed control at 500 g/ha (cocklebur; [8]): 60%; pest or weed control at 125 g/ha (cocklebur; [9]): 30%; pest or weed control at 500 g/ha (cocklebur; [10]): 80%; pest or weed control at 62 g/ha (Surinam grass): 80%; pest or weed control at 250 g/ha (Surinam grass): 100%; pest or weed control at 500 g/ha (Surinam grass): 100%
CCN1N=C(C(C)(C)C)CC1C(=O)Nc1cc(C(=O)N(C)C)ccc1F (stereo not drawn) [Compound 268, N-[5-[(dimethylamino)carbonyl]-2-fluorophenyl]-3-(1,1-dimethylethyl)-1-ethyl-4,5-dihydro-1H-pyrazole-5-carboxamide]	35	85	100	100	100	100	100	100	0	0	5	5	100	100	100	100	0	30	100	100	pest or weed control at 125 g/ha (cocklebur; [8]): 20%; pest or weed control at 500 g/ha (cocklebur; [8]): 50%; pest or weed control at 125 g/ha (cocklebur; [9]): 80%; pest or weed control at 500 g/ha (cocklebur; [10]): 90%; pest or weed control at 62 g/ha (Surinam grass): 70%; pest or weed control at 250 g/ha (Surinam grass): 95%; pest or weed control at 500 g/ha (Surinam grass): 100%
